“Also recorded” adds a separate entry of the source.
System: LRP-CTF
Assay: LRP C-terminal fragment (CTF) western after DAPT treatment
Type: cell-based, mouse
Settings: N2a cells cotransfected with LC-myc and empty vector, BACE or catalytically inactive BACE; DAPT treatment for 12 h vs vehicle
Procedure: FIG. 11 depicts a LRP CTF western. […] Shown is the intensity of a representative blot out four experiments without DAPT treatment and two with DAPT treatment.
The proteins were transferred to immobilon-P membrane (Millipore, Bedford, Mass.). Staining was performed according to Licor odyssey instructions and LRP light chain was detected by rabbit anti-myc Ab with 680 gt anti rabbit secondary and visualized on the Licor odyssey.
After cotransfection of LRP with BACE we saw an increase of LRP-CTF as well as in non-treated cells and even more after DAPT treatment.

C[C@H](NC(=O)Cc1cc(F)cc(F)c1)C(=O)N[C@H](C(=O)OC(C)(C)C)c1ccccc1 [DAPT]
LRP-CTF 25 kDa band intensity (western blot): increase of the LRP-CTF 25 kDa band; also recorded: increase of CTF intensity

Source: patent US20060034848A1, “Methods and compositions for treating Alzheimer's disease” (priority 2003, published 2006)
